From patent US11345725B2, “Bis-thioether stapled peptides as inhibitors of PRC2 function” (Research Foundation of the City University of New York, priority 2019, dated 2022)
“Also recorded” adds a separate entry of the source. Starred links: 1 amine or outer side, 2 acyl side, 3 side chain; linkers in the order of their positions; H or OH if unused. Positions of bridges follow the written chain, without caps; N, C: chain ends. Residues, ends and D or L forms follow the SMILES beside them. X1 = C(C[*:1])C[*:2]

Key:
[1] = biological target: T1, α-chymotrypsin (Bos taurus, UniProt P00766); experiment: Chymotrypsin stability test; format: in vitro ADME, bovine; conditions: bovine, pH 8; read-out: t1/2 chymotrypsin stability assay (converted)
T1 construct: freshly prepared α-chymotrypsin from bovine pancreas type II, ≥40 U/mg; purchased; host or cells: bovine pancreas
Protocol: (§1) Assays were performed using freshly prepared α-chymotrypsin from bovine pancreas type II, ≥40 U/mg. The enzyme was initially reconstituted in HCl […] (1 μg/μL), and kept in ice until used. Peptides stock solutions were prepared in assay buffer (50 mM Tris.HCl pH=8.0, 560 μM calcium chloride, 0.1% Tween-20) containing <3% of DMSO. The reactions were performed at a 200 μL scale, in assay buffer, at final concentrations of 50 μM for peptide and […] for α-chymotrypsin (10 μL from the reconstitution solution). The mixture was incubated at 37° C. and aliquots were withdrawn in portions of 25 μL at different time points for analysis. The removed aliquots were mixed with 25 μL of water 1% TFA, and then treated with a column for detergent removal following the manufacturer's protocol (Pierce, Catalog #:87776). The rate of peptide proteolysis was monitored by HPLC and HPLC-MS analysis. Control experiments were carried out under the same conditions but using BSA instead of α-chymotrypsin.

[2] = biological target: T2, α-chymotrypsin from bovine pancreas type II (Bos taurus, UniProt P00766); experiment: Chymotrypsin stability test; format: in vitro ADME; conditions: HPLC and LC/MS monitoring
T2 construct: freshly prepared α-chymotrypsin from bovine pancreas type II, ≥40 U/mg; purchased; host or cells: bovine pancreas
Protocol: as §1

With CC[C@H](C)[C@H](NC(=O)[C@H](CCCCN)NC(=O)[C@@H]1CSCCCSC[C@H](NC(=O)[C@@H](NC(C)=O)C(C)C)C(=O)N[C@@H](CC(N)=O)C(=O)N[C@@H](CCC(=O)O)C(=O)N[C@@H](CCC(=O)O)C(=O)N1)C(=O)N[C@@H](Cc1c[nH]c2ccccc12)C(=O)N[C@@H](CCCCN)C(=O)N[C@@H](CCCCN)C(=O)N[C@@H](CC(N)=O)C(=O)N[C@H](C(=O)N1CCC[C@H]1C(=O)N[C@@H](Cc1ccccc1)C(=O)N[C@@H](CC(C)C)C(N)=O)[C@@H](C)O [24 (GN-Z24), V[CNEEC](CH2)3KIWKKNTPFL] (Ac-VCNEECKIWKKNTPFL-NH2; linker 2-6 via X1; C-terminus assumed) the half-life at 50 μM [1] was 20.5 h and the “stability to chymotrypsin proteolysis” value [2] was “enhanced stability; also recorded: marked protection”.
